From ChEMBL document CHEMBL1201862, “PubChem BioAssay data set” (2004) come the findings set out here.

Active and inactive are the calls of the source.

In assay [1] the target is T1, Alkaline phosphatase, tissue-nonspecific isozyme (Homo sapiens, UniProt P05186).
T1 sequence (P05186 whole entry): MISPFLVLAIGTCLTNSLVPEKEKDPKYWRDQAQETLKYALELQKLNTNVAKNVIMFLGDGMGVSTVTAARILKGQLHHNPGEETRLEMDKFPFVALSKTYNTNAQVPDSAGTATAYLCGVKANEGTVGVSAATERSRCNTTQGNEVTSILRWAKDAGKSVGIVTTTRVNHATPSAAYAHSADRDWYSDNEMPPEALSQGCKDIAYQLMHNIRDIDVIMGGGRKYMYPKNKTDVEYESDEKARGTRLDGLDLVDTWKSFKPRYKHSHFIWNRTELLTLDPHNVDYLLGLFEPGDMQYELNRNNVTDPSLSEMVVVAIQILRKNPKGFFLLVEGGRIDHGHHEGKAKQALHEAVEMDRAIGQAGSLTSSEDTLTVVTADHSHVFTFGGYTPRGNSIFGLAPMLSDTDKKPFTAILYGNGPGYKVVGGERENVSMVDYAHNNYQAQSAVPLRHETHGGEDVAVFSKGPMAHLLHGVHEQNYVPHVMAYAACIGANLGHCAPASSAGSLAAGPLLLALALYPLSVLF
The experiment in a line: activation of tissue-nonspecific alkaline phosphatase – biochemical, TNAP isozyme, human IAP uHTS hits, selectivity assay for human IAP activator project, dose response (AID 488886).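 Also: potency of compounds raising TNAP activity as a selectivity check on IAP activators.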 The class given is functional.

The target in assay [2] is T2, Intestinal-type alkaline phosphatase (Mus musculus, UniProt P24822). As to the kind of experiment: PubChem AID 488874. In kind it is functional.
T2 sequence (P24822 whole entry): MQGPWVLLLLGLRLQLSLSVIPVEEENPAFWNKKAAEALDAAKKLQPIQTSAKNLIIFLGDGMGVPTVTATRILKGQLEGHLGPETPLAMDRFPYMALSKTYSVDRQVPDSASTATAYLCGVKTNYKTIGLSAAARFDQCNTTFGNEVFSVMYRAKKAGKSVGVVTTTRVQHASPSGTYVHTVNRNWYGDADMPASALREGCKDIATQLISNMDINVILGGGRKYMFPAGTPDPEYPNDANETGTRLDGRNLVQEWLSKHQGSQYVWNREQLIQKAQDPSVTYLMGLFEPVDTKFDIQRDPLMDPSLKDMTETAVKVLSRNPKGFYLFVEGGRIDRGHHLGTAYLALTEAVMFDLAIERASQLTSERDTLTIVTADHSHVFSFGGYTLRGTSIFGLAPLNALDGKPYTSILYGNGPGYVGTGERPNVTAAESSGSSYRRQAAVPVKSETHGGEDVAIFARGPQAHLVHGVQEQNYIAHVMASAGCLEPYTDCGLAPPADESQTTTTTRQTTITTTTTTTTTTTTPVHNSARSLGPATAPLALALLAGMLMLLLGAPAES
The target of assay [3] is T3, Intestinal-type alkaline phosphatase (Homo sapiens, UniProt P09923). The experiment in a line: human intestinal alkaline phosphatase activators, dose response, biochemical, luminescence, uHTS hits (AID 463120). In kind it is functional.
T3 sequence (P09923 whole entry): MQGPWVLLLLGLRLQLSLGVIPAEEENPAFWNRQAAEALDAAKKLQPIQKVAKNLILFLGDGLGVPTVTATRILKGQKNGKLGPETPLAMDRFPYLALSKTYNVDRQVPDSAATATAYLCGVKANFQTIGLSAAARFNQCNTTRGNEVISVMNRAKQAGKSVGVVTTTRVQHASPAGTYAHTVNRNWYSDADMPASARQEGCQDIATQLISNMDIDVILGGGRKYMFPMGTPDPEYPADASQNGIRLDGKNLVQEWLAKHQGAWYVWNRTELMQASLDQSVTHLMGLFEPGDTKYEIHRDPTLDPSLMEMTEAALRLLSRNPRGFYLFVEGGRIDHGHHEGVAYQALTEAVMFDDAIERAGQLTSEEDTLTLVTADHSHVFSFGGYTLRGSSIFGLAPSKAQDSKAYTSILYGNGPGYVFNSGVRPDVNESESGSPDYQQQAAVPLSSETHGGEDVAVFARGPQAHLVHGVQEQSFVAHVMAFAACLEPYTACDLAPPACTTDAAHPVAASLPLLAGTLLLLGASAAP
For assay [4], the target named is T3, Intestinal-type alkaline phosphatase. As to the kind of experiment: activation of human intestinal alkaline phosphatase – biochemical, luminescent, uHTS hits, set 2, dose response (AID 488817).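 Also: potency of activators that raise enzyme activity.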 The class given is functional.
Assay [5] has as its target T1, Alkaline phosphatase, tissue-nonspecific isozyme. As to the kind of experiment: TNAP enzyme inhibition by screening hits, dose response, selectivity assay for mouse IAP inhibitor project, biochemical, human TNAP, uHTS hits (AID 488906). In kind it is functional.
In assay [6] the target is T3, Intestinal-type alkaline phosphatase. The experiment in a line: inhibition of human intestinal alkaline phosphatase – biochemical, dose response (AID 488876). In kind it is functional.
Assay [7] concerns the target T2, Intestinal-type alkaline phosphatase. The experiment in a line: PubChem AID 488785. The class given is functional.
Assay [8] has as its target T4, RNA-binding protein pos-1 (Caenorhabditis elegans, UniProt G5EF15).
T4 sequence (G5EF15 whole entry): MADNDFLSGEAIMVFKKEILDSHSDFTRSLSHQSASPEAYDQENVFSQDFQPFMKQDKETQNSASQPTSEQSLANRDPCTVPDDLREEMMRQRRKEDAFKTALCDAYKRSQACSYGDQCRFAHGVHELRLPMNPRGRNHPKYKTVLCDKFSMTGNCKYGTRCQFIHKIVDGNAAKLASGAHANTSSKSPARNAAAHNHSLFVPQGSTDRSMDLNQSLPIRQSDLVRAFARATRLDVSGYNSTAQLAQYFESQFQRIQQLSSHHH
The experiment in a line: disruptors of C. elegans POS-1 RNA interaction – biochemical, fluorescence polarization, dose response (AID 1964).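 Also: purified POS-1 fused to maltose binding protein made in E. coli; potency of compounds blocking POS-1 binding to fluorescent RNA.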 A general note: Fluorescence polarisation rises when a labelled molecule tumbles more slowly, as on binding a larger partner.

For assay [9], the target named is T5, Zinc finger protein mex-5 (Caenorhabditis elegans, UniProt Q9XUB2).
T5 sequence (Q9XUB2 whole entry): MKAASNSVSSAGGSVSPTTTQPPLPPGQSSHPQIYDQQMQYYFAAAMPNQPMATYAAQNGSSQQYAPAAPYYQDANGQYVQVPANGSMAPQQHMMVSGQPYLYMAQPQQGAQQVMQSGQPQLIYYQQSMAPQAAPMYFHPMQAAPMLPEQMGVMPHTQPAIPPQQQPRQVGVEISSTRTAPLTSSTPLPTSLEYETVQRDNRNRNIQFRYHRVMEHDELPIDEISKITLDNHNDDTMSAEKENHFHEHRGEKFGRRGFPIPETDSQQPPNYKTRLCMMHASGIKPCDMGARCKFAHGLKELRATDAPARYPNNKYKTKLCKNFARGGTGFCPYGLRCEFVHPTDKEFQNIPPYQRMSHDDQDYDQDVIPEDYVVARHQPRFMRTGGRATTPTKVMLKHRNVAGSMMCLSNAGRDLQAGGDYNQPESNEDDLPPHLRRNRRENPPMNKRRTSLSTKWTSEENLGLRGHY
The experiment in a line: potency of MEX-5 RNA-binding blockers – biochemical, C. elegans, fluorescence polarization, dose response (AID 1960).

Assay [10] has as its target Mucolipin-3 (Homo sapiens, UniProt Q8TDD5). The experiment in a line: Fluorescence counterscreen assay for […] agonists: dose response cell-based high-throughput screening assay to identify agonists of the transient receptor potential channel ML3 (TRPML3). [Related pubchem assays: 1424, 1448 ]. The class given is functional. Background: Counterscreens check selectivity or assay interference.

The target in assay [11] is Ion channel NompC (Danio rerio, UniProt Q7T1G6). The experiment in a line: Dose response cell-based high-throughput screening assay for agonists of the transient receptor potential channel N1 (TRPN1). [Related pubchem assays (depositor defined):AID1424, AID1448]. The class given is functional.
Assay [12] concerns the target T6, E3 ubiquitin-protein ligase XIAP (Homo sapiens, UniProt P98170). The experiment in a line: Counter Screen using XIAP-Bir3 for Chemical Antagonists of Bir1/2 domains of IAP-family anti-apoptotic proteins. [Related pubchem assays (depositor defined):AID1018, AID1449, AID1514, AID1638, AID1749, AID1750, AID488957, AID488963].
Assay [13] addresses T6, E3 ubiquitin-protein ligase XIAP. As to the kind of experiment: small molecules displacing peptide from XIAP – biochemical, IAP family, fluorescence polarization (AID 1018). In kind it is functional.
For assay [14], the target named is Metabotropic glutamate receptor 7 (Rattus norvegicus, UniProt P35400). The experiment in a line: Modulation of the Metabotropic Glutamate Receptor mGluR4: Selectivity at mGluR7. [Related pubchem assays (depositor defined):AID2437, AID2807]. In kind it is functional.
Assay [15] has as its target Metabotropic glutamate receptor 2 (Rattus norvegicus, UniProt P31421). The experiment in a line: mGluR2 modulation, off-target check – cell-based, rat, selectivity assay for mGluR4 modulator project (AID 2188). In kind it is functional.
For assay [16], the target named is Metabotropic glutamate receptor 1 (Rattus norvegicus, UniProt P23385). As to the kind of experiment: Modulation of the Metabotropic Glutamate Receptor mGluR4: Selectivity at mGluR1. [Related pubchem assays (depositor defined):AID2437, AID2807]. The class given is functional.
Chain of Metabotropic glutamate receptor 1 (P23385 whole entry): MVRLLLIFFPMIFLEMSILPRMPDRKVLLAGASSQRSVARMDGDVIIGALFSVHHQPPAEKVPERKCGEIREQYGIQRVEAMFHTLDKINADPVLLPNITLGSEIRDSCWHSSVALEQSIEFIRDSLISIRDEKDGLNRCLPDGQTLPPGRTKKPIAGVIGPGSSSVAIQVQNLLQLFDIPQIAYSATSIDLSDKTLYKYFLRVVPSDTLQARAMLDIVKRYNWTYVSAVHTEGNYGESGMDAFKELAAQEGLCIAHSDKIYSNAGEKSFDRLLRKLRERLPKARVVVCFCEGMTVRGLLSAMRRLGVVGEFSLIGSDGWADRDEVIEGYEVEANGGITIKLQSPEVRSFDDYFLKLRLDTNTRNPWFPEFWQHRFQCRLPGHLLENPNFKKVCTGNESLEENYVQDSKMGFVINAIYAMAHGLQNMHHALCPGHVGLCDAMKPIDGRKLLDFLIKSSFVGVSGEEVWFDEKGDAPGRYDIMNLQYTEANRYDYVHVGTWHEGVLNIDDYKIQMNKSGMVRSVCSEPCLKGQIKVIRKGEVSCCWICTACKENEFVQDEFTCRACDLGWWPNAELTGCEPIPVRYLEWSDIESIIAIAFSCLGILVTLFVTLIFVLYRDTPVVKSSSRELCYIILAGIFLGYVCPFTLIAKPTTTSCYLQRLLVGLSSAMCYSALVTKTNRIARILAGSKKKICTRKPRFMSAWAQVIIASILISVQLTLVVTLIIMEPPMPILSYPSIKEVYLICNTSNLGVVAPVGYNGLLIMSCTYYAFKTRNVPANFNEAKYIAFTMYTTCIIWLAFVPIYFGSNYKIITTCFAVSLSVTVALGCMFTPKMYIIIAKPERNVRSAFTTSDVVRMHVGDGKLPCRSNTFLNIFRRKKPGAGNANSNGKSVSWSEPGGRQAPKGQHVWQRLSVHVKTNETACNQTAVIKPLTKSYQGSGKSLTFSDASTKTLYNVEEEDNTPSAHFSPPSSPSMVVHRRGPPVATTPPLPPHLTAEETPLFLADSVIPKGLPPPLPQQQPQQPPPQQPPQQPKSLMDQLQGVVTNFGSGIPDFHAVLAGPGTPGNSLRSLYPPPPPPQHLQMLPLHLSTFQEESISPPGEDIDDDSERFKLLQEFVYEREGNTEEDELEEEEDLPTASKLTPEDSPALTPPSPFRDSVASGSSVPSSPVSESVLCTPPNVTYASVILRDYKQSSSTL
The target of assay [17] is T7, Kappa-type opioid receptor (Homo sapiens, UniProt P41145). The experiment in a line: SAR analysis of small molecule agonists of the kappa opioid receptor via a luminescent beta-arrestin assay - Set 3. [Related pubchem assays (depositor defined):AID1777, AID1785, AID1786, AID1966, AID2133, AID2136, AID2284, AID2500]. The class given is functional.
T7 sequence (P41145 whole entry): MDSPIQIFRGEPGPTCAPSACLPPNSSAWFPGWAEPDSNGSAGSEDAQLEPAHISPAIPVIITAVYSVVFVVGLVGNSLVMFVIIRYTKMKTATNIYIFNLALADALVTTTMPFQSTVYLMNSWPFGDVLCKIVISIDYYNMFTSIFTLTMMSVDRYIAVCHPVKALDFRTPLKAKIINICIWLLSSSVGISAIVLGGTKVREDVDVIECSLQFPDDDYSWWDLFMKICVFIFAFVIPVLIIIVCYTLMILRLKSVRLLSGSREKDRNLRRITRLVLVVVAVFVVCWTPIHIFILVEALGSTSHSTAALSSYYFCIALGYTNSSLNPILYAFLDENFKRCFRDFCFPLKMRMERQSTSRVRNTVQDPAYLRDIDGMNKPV
The target in assay [18] is G-protein coupled receptor 55 (Homo sapiens, UniProt Q9Y2T6). As to the kind of experiment: blockers of GPR55 signalling, imaged – imaging, image-based, counter-screen for GPR35 antagonist project, SAR follow-up (AID 2397). The class given is functional.
The target of assay [19] is T8, Mu-type opioid receptor (Homo sapiens, UniProt P35372). As to the kind of experiment: mu opioid receptor activators, image-based, SAR follow-up (AID 2352). In kind it is functional.
T8 sequence (P35372 whole entry): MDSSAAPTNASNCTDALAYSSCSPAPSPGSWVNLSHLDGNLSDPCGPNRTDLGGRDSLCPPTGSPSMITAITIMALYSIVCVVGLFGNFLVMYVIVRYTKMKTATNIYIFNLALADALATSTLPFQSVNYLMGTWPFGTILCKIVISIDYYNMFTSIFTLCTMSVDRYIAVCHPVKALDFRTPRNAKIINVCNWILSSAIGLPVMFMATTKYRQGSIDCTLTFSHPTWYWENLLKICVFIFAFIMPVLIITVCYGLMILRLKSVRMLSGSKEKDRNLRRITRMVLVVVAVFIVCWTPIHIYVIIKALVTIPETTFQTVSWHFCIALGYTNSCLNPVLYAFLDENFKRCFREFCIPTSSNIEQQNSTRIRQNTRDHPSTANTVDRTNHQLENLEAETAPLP
Assay [20] concerns the target T8, Mu-type opioid receptor. The experiment in a line: mu opioid receptor blockers – image-based, SAR follow-up (AID 2420).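 Also: compounds added before stimulation of receptor with agonist DAMGO.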 The class given is functional.
Assay [21] deals with T7, Kappa-type opioid receptor. As to the kind of experiment: kappa opioid receptor activation potency – imaging, image-based, SAR follow-up (AID 2359). In kind it is functional.
Assay [22] deals with T7, Kappa-type opioid receptor. As to the kind of experiment: SAR analysis of small molecule agonists of the kappa opioid receptor via a luminescent beta-arrestin assay. [Related pubchem assays (depositor defined):AID1777, AID1786, AID1966, AID2133, AID2136, AID2348, AID2352, AID2357, AID2359, AID2370, AID2420, AID2478, AID2491, AID2492, AID2493, AID2497, AID2498, AID2500, AID449737, AID488822, AID488842]. The class given is functional.

The target of assay [23] is T9, Delta-type opioid receptor (Homo sapiens, UniProt P41143). The experiment in a line: DOR agonists, SAR follow-up, image-based (AID 2370). The class given is functional.
T9 sequence (P41143 whole entry): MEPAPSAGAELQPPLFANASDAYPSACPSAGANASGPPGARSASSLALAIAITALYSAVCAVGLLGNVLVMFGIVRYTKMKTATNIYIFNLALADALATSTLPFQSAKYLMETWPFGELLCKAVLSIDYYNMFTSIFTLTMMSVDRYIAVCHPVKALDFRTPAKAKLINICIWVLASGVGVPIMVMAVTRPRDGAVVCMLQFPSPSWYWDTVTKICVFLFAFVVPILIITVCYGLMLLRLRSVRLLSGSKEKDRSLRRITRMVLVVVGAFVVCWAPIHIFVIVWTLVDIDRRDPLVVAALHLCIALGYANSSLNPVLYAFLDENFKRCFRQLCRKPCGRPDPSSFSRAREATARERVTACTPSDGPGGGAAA
Assay [24] has as its target T7, Kappa-type opioid receptor. As to the kind of experiment: kappa opioid receptor blockers, image-based, SAR follow-up (AID 2348). The class given is functional.
Assay [25] addresses T9, Delta-type opioid receptor. The experiment in a line: delta opioid receptor blockers – image-based, SAR follow-up (AID 2357). In kind it is functional.
Assay [26] addresses Peroxisome proliferator-activated receptor gamma (Homo sapiens, UniProt P37231). The experiment in a line: PPARg transcriptional activation, reporter cells – cell-based, luminescence, assay provider, dose response (AID 504447). The class given is functional.

T6 sequence (P98170 whole entry): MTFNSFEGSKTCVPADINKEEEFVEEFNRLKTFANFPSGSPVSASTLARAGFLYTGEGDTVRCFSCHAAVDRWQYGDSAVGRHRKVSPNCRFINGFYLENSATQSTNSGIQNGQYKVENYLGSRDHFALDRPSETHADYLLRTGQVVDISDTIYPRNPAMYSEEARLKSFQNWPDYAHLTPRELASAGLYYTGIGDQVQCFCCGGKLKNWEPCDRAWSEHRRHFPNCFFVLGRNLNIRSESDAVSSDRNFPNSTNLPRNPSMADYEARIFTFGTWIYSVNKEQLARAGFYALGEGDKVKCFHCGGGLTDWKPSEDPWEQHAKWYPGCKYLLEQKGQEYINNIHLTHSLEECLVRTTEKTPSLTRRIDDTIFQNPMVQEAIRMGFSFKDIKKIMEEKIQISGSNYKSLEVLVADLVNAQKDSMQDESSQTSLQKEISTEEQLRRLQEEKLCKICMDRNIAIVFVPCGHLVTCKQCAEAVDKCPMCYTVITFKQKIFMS
Chain of Peroxisome proliferator-activated receptor gamma (P37231 whole entry): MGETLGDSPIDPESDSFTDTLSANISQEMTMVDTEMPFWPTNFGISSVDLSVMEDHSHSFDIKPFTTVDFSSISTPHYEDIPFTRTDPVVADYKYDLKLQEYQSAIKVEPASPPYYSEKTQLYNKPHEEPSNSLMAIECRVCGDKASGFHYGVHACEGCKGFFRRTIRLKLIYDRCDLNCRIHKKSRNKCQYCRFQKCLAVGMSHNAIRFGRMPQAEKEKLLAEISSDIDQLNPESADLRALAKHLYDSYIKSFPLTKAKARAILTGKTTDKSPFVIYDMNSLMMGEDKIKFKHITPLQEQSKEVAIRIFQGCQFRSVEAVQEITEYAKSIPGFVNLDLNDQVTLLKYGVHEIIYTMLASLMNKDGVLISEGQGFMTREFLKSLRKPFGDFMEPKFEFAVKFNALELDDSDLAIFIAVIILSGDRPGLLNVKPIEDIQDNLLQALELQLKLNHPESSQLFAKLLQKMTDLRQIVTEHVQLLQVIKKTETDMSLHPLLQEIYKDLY
Chain of Mucolipin-3 (Q8TDD5 whole entry): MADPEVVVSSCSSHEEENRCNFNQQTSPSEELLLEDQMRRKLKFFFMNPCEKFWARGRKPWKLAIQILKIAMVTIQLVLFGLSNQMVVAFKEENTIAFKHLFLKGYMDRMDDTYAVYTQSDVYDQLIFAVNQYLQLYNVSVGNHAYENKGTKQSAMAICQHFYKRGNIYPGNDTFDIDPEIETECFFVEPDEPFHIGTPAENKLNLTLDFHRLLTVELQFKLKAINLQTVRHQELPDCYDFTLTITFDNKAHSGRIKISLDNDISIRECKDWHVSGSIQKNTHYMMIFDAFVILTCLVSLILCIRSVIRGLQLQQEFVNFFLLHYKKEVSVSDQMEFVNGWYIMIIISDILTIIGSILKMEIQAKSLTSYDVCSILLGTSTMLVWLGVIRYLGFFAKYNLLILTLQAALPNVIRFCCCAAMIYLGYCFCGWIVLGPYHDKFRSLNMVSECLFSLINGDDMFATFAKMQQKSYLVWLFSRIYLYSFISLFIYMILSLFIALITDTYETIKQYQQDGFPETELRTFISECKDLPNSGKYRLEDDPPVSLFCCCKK

One may read the EC50 as the concentration that produces a half-maximal response. A word on the IC50: it is the concentration needed to halve the response being measured. For `COc1ccc(O)c(/C=N/NC(=S)NCCc2ccccc2)c1`, the values for the EC50 in assay [1], in assay [3] and in assay [4] were 26.3 µM (active), 13.1 µM (active) and 16 µM (active), respectively. Moreover, the IC50 in assay [2] is 60.7 µM (active).

In the case of `CN(CC(=O)NC(c1ccccc1)c1ccccc1)Cc1nc(O)c2ccccc2n1`, the IC50 in assay [5] is 74.2 µM (active); in [6], 26.6 µM (active); in [7], 7.93 µM (active).

For the molecule `CN1C(=O)C(=Cc2sc(=O)n(-c3ccccc3)c2N2CCCCC2)C(=O)N(C)C1=O`, the EC50 in assay [8] was 4.56 µM (inconclusive); in assay [9], 19.9 µM (inconclusive); in assay [10] it was 10.7 µM (not active); in assay [11], > 3.32 µM (inactive).

With `COc1ccc(/C=N/Nc2nc(N3CCCC3)nc(N3CCCC3)n2)cc1`, the values for the IC50 in assay [12] and in assay [13] were > 100 µM (inactive) and > 100 µM (not active), respectively.

Take `COc1cc(NC(=O)c2ccccn2)ccc1Cl`: in assay [14], the “Activity EC50” value came to 313 µM. In addition, the EC50 is 1.04 µM (inactive) in assay [15] and 0.943 µM (inactive) in [16].

On to `Clc1ccc(CSc2nnc(-c3ccc(Br)cc3)n2Cc2ccco2)cc1Cl`, for which the EC50 in assay [17] was 8 µM (active).

As for `CCC(Sc1nc2ccsc2c(=O)n1Cc1ccc(C(=O)O)cc1)C(=O)Nc1ccc(Cl)cc1` (stereo unspecified), the IC50 in [18] is > 32 µM (inactive).

As to `CCCCN(Cc1cc2cc(OC)ccc2[nH]c1=O)C(=O)c1ccccn1`, the EC50 in assay [19] was > 32 µM (inactive); in assay [21] it was 19.9 µM (inactive); in [22] it was > 10 µM (inactive); in assay [23], > 32 µM (inactive). The IC50 in assay [20], in [24] and in assay [25] was > 32 µM (inactive) throughout.

As for `COc1ccc2c(c1)c(=O)c(C(=O)c1ccc(C)cc1)cn2CC(=O)Nc1ccc(F)cc1`, the EC50 in [26] was 14 µM (active).
